The results in this text go back to patent publication US20240246918A1, “COMPOUNDS AND COMPOSITIONS AS EIF4E INHIBITORS AND THE USES THEREOF” (Ribometrix, Inc., priority 2022, published 2024).

One may read the IC50 as the concentration that inhibits the measured activity by half.

Experiment [1] deals with T1, human eIF4E protein (Homo sapiens, UniProt P06730).
T1 construct: purchased Novus NBP-45314
Briefly: Biochemical competitive binding assay (TR-FRET competition, EDA-m7GDP-ATTO-647N probe). Particulars: read-out: hEIF4E TR-FRET IC50. The gist of the method: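 IC50 values come from 4-parameter fits of the normalized 665/620 nm TR-FRET ratio. Compound was first incubated 15 min with 4 nM recombinant His-eIF4E bound to 2.5 nM Eu-anti-His antibody, then 15 min with 5 nM m7GDP-ATTO-647N tracer, in pH 7.5 HEPES buffer with 100 mM KCl, Tween-20 and BSA.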
(In TR-FRET formats the signal depends on donor and acceptor labels being close together.)

Experiment [2] has as its system COLO 205 colorectal tumor cells. The experiment in a line: Tumor cell viability inhibition assay (CellTiter-Glo 2.0, 72 hours). The format is cell-based. To be noted: COLO 205 cell viability. The gist of the method:
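IC50 derived by 4-parameter fitting after normalizing luminescence to DMSO and max-inhibition wells. Compounds tested as 11 concentrations in 4-fold steps on COLO 205 cells seeded at 1500 per well in RPMI-1640/10% FBS; ATP content measured with CellTiter-Glo 2.0 after 72 h.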
Background: ATP-based viability assays read luminescence as a measure of living cells.

T1 sequence (P06730 whole entry): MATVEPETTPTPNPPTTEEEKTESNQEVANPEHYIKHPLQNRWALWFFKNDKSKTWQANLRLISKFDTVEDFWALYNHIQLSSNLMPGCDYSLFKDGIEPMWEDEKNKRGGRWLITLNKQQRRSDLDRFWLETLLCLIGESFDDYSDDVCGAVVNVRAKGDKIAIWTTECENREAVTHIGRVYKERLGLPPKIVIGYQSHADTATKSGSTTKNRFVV

With `Cc1cc(-c2cc(Cl)ccc2OCCn2c(C)nc3c(c2=O)C[C@@H](N2CCC(c4ccccc4OC(F)(F)F)CC2)CC3)c2scc(C(=O)O)c2n1` (single isomer, unassigned) [Compound 572], the half-inhibitory concentration (IC50) in experiment [1] is less than 0.1 µM; in experiment [2] (Homo sapiens, COLO 205, 72 h), less than 5 µM.
The like results for `Cc1cc(-c2cc(Cl)ccc2OCCn2c(C)nc3c(c2=O)C[C@H](N2CCC(c4cc(F)cc(F)c4F)CC2)CC3)c2scc(C(=O)O)c2n1` (single isomer, unassigned) [Compound 573] were, in that order, less than 0.1 µM and less than 5 µM.
With `Cc1cc(-c2cc(Cl)ccc2OCCn2c(C)nc3c(c2=O)C[C@@H](N2CCC(c4cc(F)cc(F)c4F)CC2)CC3)c2scc(C(=O)O)c2n1` (single isomer, unassigned) [Compound 574], the IC50 in experiment [1] is less than 0.1 µM; in experiment [2] (Homo sapiens, COLO 205, 72 h), less than 5 µM.
For the compound `COc1cc(C2CCN([C@@H]3CCc4nc(C)n(CCOc5ccc(Cl)cc5-c5cc(C)nc6c(C(=O)O)csc56)c(=O)c4C3)CC2)ccn1` (single isomer, unassigned) [Compound 575], the IC50 in experiment [1] was less than 0.1 µM; in experiment [2] (Homo sapiens, COLO 205, 72 h), less than 5 µM.
The corresponding values for `COc1cc(C2CCN([C@H]3CCc4nc(C)n(CCOc5ccc(Cl)cc5-c5cc(C)nc6c(C(=O)O)csc56)c(=O)c4C3)CC2)ccn1` (single isomer, unassigned) [Compound 576] are less than 0.1 µM and less than 5 µM.
For `Cc1cc(-c2cc(Cl)ccc2OCCn2c(C)nc3c(c2=O)C[C@H](N2CCC(c4nc(C(F)(F)F)cs4)CC2)CC3)c2scc(C(=O)O)c2n1` (single isomer, unassigned) [Compound 577], the IC50 in experiment [1] was less than 0.1 µM; in experiment [2] (Homo sapiens, COLO 205, 72 h), less than 5 µM.
Regarding `Cc1cc(-c2cc(Cl)ccc2OCCn2c(C)nc3c(c2=O)C[C@@H](N2CCC(c4nc(C(F)(F)F)cs4)CC2)CC3)c2scc(C(=O)O)c2n1` (single isomer, unassigned) [Compound 578], the 50% inhibitory concentration (IC50) was less than 0.1 µM in experiment [1] and less than 5 µM in experiment [2] (Homo sapiens, COLO 205, 72 h).
Consider `Cc1cc(-c2cc(Cl)ccc2OCCn2c(C)nc3c(c2=O)CC(N2CCC(OC(F)(F)F)CC2)CC32CC2)c2scc(C(=O)NS(C)(=O)=O)c2n1` (single isomer, unassigned) [Compound 579, 7-(5-chloro-2-(2-(2′-methyl-4′-oxo-6′-(4-(trifluoromethoxy)piperidin-1-yl)-6′,7′-dihydro-4′H-spiro[cyclopropane-1,8′-quinazolin]-3′(5′H)-yl)ethoxy)phenyl)-5-methyl-N-(methylsulfonyl)thieno[3,2-b]pyridine-3-carboxamide], for which the IC50 in experiment [1] was less than 0.1 µM; in experiment [2] (Homo sapiens, COLO 205, 72 h) it was less than 5 µM.
The corresponding values for `Cc1cc(-c2cc(Cl)ccc2OCCn2c(C)nc3c(c2=O)C[C@H](N2CCC[C@@]4(C2)CC4(F)F)CC32CC2)c2scc(C(=O)O)c2n1` (single isomer, unassigned) [Compound 580] are less than 0.1 µM and less than 5 µM.
The like results for `Cc1cc(-c2cc(Cl)ccc2OCCn2c(C)nc3c(c2=O)C[C@H](N2CCC[C@]4(C2)CC4(F)F)CC32CC2)c2scc(C(=O)O)c2n1` (single isomer, unassigned) [Compound 581] were, in that order, less than 0.1 µM and less than 5 µM.
On to `Cc1cc(-c2cc(Cl)ccc2OCCn2c(C)nc3c(c2=O)C[C@@H](N2CCC[C@@]4(C2)CC4(F)F)CC32CC2)c2scc(C(=O)O)c2n1` (single isomer, unassigned) [Compound 582], for which the IC50 is less than 0.1 µM in experiment [1] and less than 5 µM in experiment [2] (Homo sapiens, COLO 205, 72 h).
The corresponding values for `Cc1cc(-c2cc(Cl)ccc2OCCn2c(C)nc3c(c2=O)C[C@@H](N2CCC[C@]4(C2)CC4(F)F)CC32CC2)c2scc(C(=O)O)c2n1` (single isomer, unassigned) [Compound 583] are less than 0.1 µM and less than 5 µM.
For `Cc1cc(-c2cc(Cl)ccc2OCCn2c(C)nc3c(c2=O)C[C@H](N2CCC(c4cnc(C(F)(F)F)nc4)CC2)CC3)c2scc(C(=O)O)c2n1` (single isomer, unassigned) [Compound 584], the 50% inhibitory concentration (IC50) in experiment [1] is less than 0.1 µM; in experiment [2] (Homo sapiens, COLO 205, 72 h) it was 5 to 20 µM.
As to `Cc1cc(-c2cc(Cl)ccc2OCCn2c(C)nc3c(c2=O)C[C@@H](N2CCC(c4cnc(C(F)(F)F)nc4)CC2)CC3)c2scc(C(=O)O)c2n1` (single isomer, unassigned) [Compound 585], the IC50 was less than 0.1 µM in experiment [1] and less than 5 µM in experiment [2] (Homo sapiens, COLO 205, 72 h).
For the compound `Cc1cc(-c2cc(Cl)ccc2OCCn2c(C)nc3c(c2=O)C[C@@H](N2CCC(c4cc(F)ccc4C(F)(F)F)CC2)CC3)c2scc(C(=O)O)c2n1` (single isomer, unassigned) [Compound 586], the IC50 in experiment [1] was less than 0.1 µM; in experiment [2] (Homo sapiens, COLO 205, 72 h), less than 5 µM.
The like results for `Cc1cc(-c2cc(Cl)ccc2OCCn2c(C)nc3c(c2=O)C[C@H](N2CCCC[C@H]2c2cccc(C(F)(F)F)c2)CC3)c2scc(C(=O)O)c2n1` (single isomer, unassigned) [Compound 587] were, in that order, less than 0.1 µM and less than 5 µM.
With `Cc1cc(-c2cc(Cl)ccc2OCCn2c(C)nc3c(c2=O)C[C@@H](N2CCCC[C@@H]2c2cccc(C(F)(F)F)c2)CC3)c2scc(C(=O)O)c2n1` (single isomer, unassigned) [Compound 588], the IC50 in experiment [1] is 0.1 to 0.5 µM; in experiment [2] (Homo sapiens, COLO 205, 72 h) it was 5 to 20 µM.
`Cc1cc(-c2cc(Cl)ccc2OCCn2c(C)nc3c(c2=O)C[C@@H](N2CCCC[C@H]2c2cccc(C(F)(F)F)c2)CC3)c2scc(C(=O)O)c2n1` (single isomer, unassigned) [Compound 589]: the IC50 in experiment [1] was 0.1 to 0.5 µM; in experiment [2] (Homo sapiens, COLO 205, 72 h), greater than 20 µM.
The corresponding values for `Cc1cc(-c2cc(Cl)ccc2OCCn2c(C)nc3c(c2=O)C[C@H](N2CCCC[C@@H]2c2cccc(C(F)(F)F)c2)CC3)c2scc(C(=O)O)c2n1` (single isomer, unassigned) [Compound 590] are 0.5 to 5 µM and greater than 20 µM.
As for `Cc1cc(-c2cc(Cl)ccc2OCCn2c(C)nc3c(c2=O)C[C@@H](N2CCC4(CC2)CC4(F)F)CC32CC2)c2scc(C(=O)O)c2n1` (single isomer, unassigned) [Compound 591], the IC50 in experiment [1] was less than 0.1 µM; in experiment [2] (Homo sapiens, COLO 205, 72 h) it was less than 5 µM.
As to `Cc1nc2c(c(=O)n1CC#Cc1ccc(Cl)cc1-c1ccnc3c(C(=O)NS(C)(=O)=O)csc13)CC(N1CCC(OC(F)(F)F)CC1)CC2` (single isomer, unassigned) [Compound 592], the half-inhibitory concentration (IC50) in experiment [1] was less than 0.1 µM; in experiment [2] (Homo sapiens, COLO 205, 72 h), less than 5 µM.
In the case of `Cc1cc(-c2cc(Cl)ccc2OCCn2c(C)nc3c(c2=O)C[C@H](N2CCC(c4nc5ccc(F)cc5s4)CC2)CC3)c2scc(C(=O)O)c2n1` (single isomer, unassigned) [Compound 593], the IC50 was less than 0.1 µM in experiment [1] and less than 5 µM in experiment [2] (Homo sapiens, COLO 205, 72 h).
Regarding `Cc1cc(-c2cc(Cl)ccc2OCCn2c(C)nc3c(c2=O)C[C@@H](N2CCC(c4nc5ccc(F)cc5s4)CC2)CC3)c2scc(C(=O)O)c2n1` (single isomer, unassigned) [Compound 594], the IC50 was less than 0.1 µM in experiment [1] and less than 5 µM in experiment [2] (Homo sapiens, COLO 205, 72 h).
`Cc1cc(-c2cc(Cl)ccc2OCCn2c(C)nc3c(c2=O)C[C@H](N2CCC(Oc4ccc(F)cc4F)CC2)CC3)c2scc(C(=O)O)c2n1` (single isomer, unassigned) [Compound 595]: the IC50 in experiment [1] is less than 0.1 µM; in experiment [2] (Homo sapiens, COLO 205, 72 h) it was less than 5 µM.
In the case of `Cc1cc(-c2cc(Cl)ccc2OCCn2c(C)nc3c(c2=O)C[C@@H](N2CCC(Oc4ccc(F)cc4F)CC2)CC3)c2scc(C(=O)O)c2n1` (single isomer, unassigned) [Compound 596], the IC50 in experiment [1] was less than 0.1 µM; in experiment [2] (Homo sapiens, COLO 205, 72 h) it was less than 5 µM.
Regarding `Cc1cc(-c2cc(Cl)ccc2OCCn2c(C)nc3c(c2=O)C[C@H](N2CCC(OC(F)(F)F)CC2)[C@@H]2C[C@H]32)c2scc(C(=O)O)c2n1` (single isomer, unassigned) [Compound 597], the IC50 in experiment [1] was less than 0.1 µM; in experiment [2] (Homo sapiens, COLO 205, 72 h), less than 5 µM.
In the case of `Cc1cc(-c2cc(Cl)ccc2OCCn2c(C)nc3c(c2=O)C[C@@H](N2CCC(OC(F)(F)F)CC2)[C@H]2C[C@@H]32)c2scc(C(=O)O)c2n1` (single isomer, unassigned) [Compound 598], the concentration for half-maximal inhibition (IC50) is less than 0.1 µM in experiment [1] and less than 5 µM in experiment [2] (Homo sapiens, COLO 205, 72 h).
In the case of `Cc1cc(-c2cc(Cl)ccc2OCCn2c(C)nc3c(c2=O)CC(C)(N(C)CC2CC(F)(F)C2)CC3)c2scc(C(=O)O)c2n1` (single isomer, unassigned) [Compound 599], the concentration for half-maximal inhibition (IC50) was less than 0.1 µM in experiment [1] and 5 to 20 µM in experiment [2] (Homo sapiens, COLO 205, 72 h).
Turning to `Cc1cc(-c2cc(Cl)ccc2OCCn2c(C)nc3c(c2=O)CC(C)(N(C)CC2CC(F)(F)C2)CC3)c2scc(C(=O)O)c2n1` (single isomer, unassigned) [Compound 600], the IC50 in experiment [1] is less than 0.1 µM; in experiment [2], less than 5 µM.
The like results for `Cc1nc2c(c(=O)n1CC#Cc1ccc(Cl)cc1-c1ccnc3c(C(=O)NS(C)(=O)=O)csc13)CC(N1CCC(OC(F)(F)F)CC1)CC2` (single isomer, unassigned) [Compound 601] were, in that order, less than 0.1 µM and less than 5 µM.
Consider `Cc1cc(-c2cc(Cl)ccc2OCCn2c(C)nc3c(c2=O)C[C@H](N2CCC(C(F)(F)F)CC2)CC32CC2)c2scc(C(=O)O)c2n1` (single isomer, unassigned) [Compound 602], for which the IC50 in experiment [1] is less than 0.1 µM; in experiment [2] (Homo sapiens, COLO 205, 72 h), less than 5 µM.
For the compound `Cc1cc(-c2cc(Cl)ccc2OCCn2c(C)nc3c(c2=O)C[C@@H](N2CCC(C(F)(F)F)CC2)CC32CC2)c2scc(C(=O)O)c2n1` (single isomer, unassigned) [Compound 603], the IC50 is less than 0.1 µM in experiment [1] and less than 5 µM in experiment [2] (Homo sapiens, COLO 205, 72 h).
For the compound `Cc1cc(-c2cc(Cl)ccc2OCCn2c(C)nc3c(c2=O)C[C@H](N2C[C@@H]4CC[C@H]2CC4OC(F)(F)F)CC32CC2)c2scc(C(=O)O)c2n1` (single isomer, unassigned) [Compound 604], the IC50 in experiment [1] is less than 0.1 µM; in experiment [2] (Homo sapiens, COLO 205, 72 h) it was less than 5 µM.
